According to paper PMC2912498 (Cancer research, 2010):
Where two headings read alike, the source gives them in different places.

Tests used:
[1] = tested on: GSK-3 dependent Tau phosphorylation; assay type: cell-based, human
[2] = tested on: TCF-dependent transcription; assay type: cell-based, human; conditions: read-out: Reporter IC50; 7dF3 reporter activity
HT29 (APC mutant) = assay type: cell-based, human; conditions: read-out: HT29 (APC mutant) GI50; 72h
[3] = tested on: HCT116 (oncogenic β-catenin); assay type: cell-based, human; conditions: read-out: HCT116 (oncogenic β-catenin) GI50; 72h
SW480 (APC mutant) = assay type: cell-based, human; conditions: read-out: SW480 (APC mutant) GI50; 72h
SNU475 (Axin mutant) = assay type: cell-based, human; conditions: read-out: SNU475 (Axin mutant) GI50; 96h
CCD841Co (Control) = assay type: cell-based, human; conditions: read-out: CCD841Co (Control) GI50; 96h; >> = no growth inhibition at the highest concentration tested
[4] = tested on: HCT116 human colon cancer cell; assay type: cell-based
β-catenin [5] = assay type: cell-based, mouse
[6] = tested on: U2OS GFP-β-catenin human osteosarcoma cells; assay type: cell-based
[7] = tested on: TCF-dependent transcription; assay type: cell-based, human
β-catenin [8] = assay type: cell-based, mouse; remark: listed apart in the source
recombinant GSK3 = assay type: biochemical
PP1 = assay type: biochemical
PP2A = assay type: biochemical
Tyrosine Phosphatase = assay type: biochemical
free β-catenin [9] = assay type: cell-based, human; conditions: SW480 cells
free β-catenin [10] = assay type: cell-based, human
[11] = tested on: TCF-dependent transcription; assay type: cell-based, human; remark: listed apart in the source
c-myc promoter = assay type: cell-based, human
survivin promoter = assay type: cell-based, human
LEF-1 mRNA = assay type: cell-based, human
Xenopus laevis embryos = assay type: in vivo; conditions: added at the 4-16 cell stage
Zebrafish embryos = assay type: in vivo; conditions: added at the 16-cell stage

Substance: 6-bromoindirubin-3′-oxime [BIO, reference compound]
- GSK-3 dependent Tau phosphorylation on Thr-181 ([1]; HEK293): reduce GSK-3 dependent Tau phosphorylation on Thr-181

Substance: CCT031374
- IC50 [2]: 6.1 µM
- GI50 (HT29 (APC mutant)): 11.5 µM
- GI50 [3]: 13.9 µM
- GI50 (SW480 (APC mutant)): 13.2 µM
- GI50 (SNU475 (Axin mutant)): 9.6 µM
- GI50 (CCD841Co (Control)): > 44 µM
- apoptosis shown by caspase 3 activity [4]: inducing apoptosis
- caspase activity relative to the other compounds [4]: almost two times more caspase activity than the other compounds
- BIO-induced accumulation / levels of β-catenin (β-catenin [5]): prevented BIO-induced accumulation of β-catenin
- degradation of endogenous wild-type β-catenin stabilized by BIO (β-catenin [5]): increased the degradation
- degradation of β-catenin stabilized by Wnt-3A and LiCl (β-catenin [5]): resistant to degradation
- degradation of β-catenin stabilized with MG132 (β-catenin [5]): not degraded
- nuclear and cytosolic β-catenin pools (β-catenin [5]): reduction in both nuclear and cytosolic β-catenin pools
- time to reduce levels of BIO-stabilized β-catenin (β-catenin [5]): ≤ 60 min
- β-catenin N-terminal phosphorylation (β-catenin [5]): did not increase β-catenin N-terminal phosphorylation
- β-catenin degradation products characteristic of calpain-induced proteolysis (β-catenin [5]): failed to induce β-catenin degradation products
- formation of GFP-β-catenin aggregates [6]: induced formation of GFP-β-catenin aggregates
- TCF-dependent transcription induced by stabilized β-catenin (N-terminal deletion of 89 amino acids) [7]: blocked TCF-dependent transcription
- time to increased β-catenin degradation (pulse chase) (β-catenin [8]): ≤ 10 min
- reversal of the BIO block of Tau phosphorylation ([1]; HEK293, BIO plus 20μM CCT031374): largely failed to reduce the BIO block of Tau phosphorylation
- inhibition of recombinant GSK3 (recombinant GSK3): did not inhibit
- PP1 enzyme activity (PP1): no activity
- PP2A enzyme activity (PP2A): no activity
- Tyrosine Phosphatase enzyme activity (Tyrosine Phosphatase): no activity
- free β-catenin levels (free β-catenin [9]): not altered
- free β-catenin levels (free β-catenin [10]): blocked free β-catenin levels
- TCF-dependent transcription (Topflash) [11]: reduced TCF-dependent transcription
- activity against c-myc promoter luciferase reporter (c-myc promoter): showed activity
- activity against survivin promoter luciferase reporter (survivin promoter): showed activity
- endogenous LEF-1 mRNA levels (LEF-1 mRNA): showed activity against endogenous LEF-1 mRNA levels
- effect on Xenopus embryo development (Xenopus laevis embryos): did not show clear responses
- effect on Zebrafish embryo development (Zebrafish embryos): did not show clear responses
